The source made the active and inactive calls. The rule behind the calls is not given here.
How the values were obtained:
Entamoeba histolytica = assay: Antiprotozoal activity against Entamoeba histolytica Hk-9 trophozoites after 70 hrs by resazurin-based spectrophotometric assay; assay type: functional, organism-based; conditions: Hk-9, 70 h
Giardia intestinalis = assay: Antiprotozoal activity against Giardia intestinalis G1 after 70 hrs by resazurin-based spectrophotometric assay; assay type: functional, organism-based; conditions: Giardia duodenalis, G1, 70 h
Trypanosoma cruzi = assay: Antitrypanosomal activity against trypomastigote form of Trypanosoma cruzi Tulahuen C2C4 expressing Lac Z infected in rat L6 cells after 96 hrs by spectrophotometry; assay type: functional, organism-based; conditions: Tulahuen C2C4, L6, 96 h
[1] = Inhibition of beta-hematin formation in aqueous acetate buffer; assay type: functional
[2] = Selectivity ratio of IC50 for rat L6 cells to IC50 for Entamoeba histolytica Hk-9; assay type: ADME, cell-based; conditions: read-out: Ratio IC50
Leishmania donovani = assay: Antileishmanial activity against Leishmania donovani MHOM-ET-67/L82 after 72 hrs by resazurin-based spectrophotometric assay; assay type: functional, organism-based; conditions: MHOM-ET-67/L82, 72 h
[3] = test system: Trypanosoma brucei rhodesiense; assay: Antitrypanosomal activity against bloodstream form of Trypanosoma brucei rhodesiense STIB 900 after 70 hrs by resazurin-based spectrophotometric assay; assay type: functional, organism-based; conditions: STIB 900, 70 h
L6 = assay: Cytotoxicity against rat L6 cells after 72 hrs by resazurin-based spectrophotometric assay; assay type: cell-based; conditions: L6, 72 h
[4] = Selectivity ratio of IC50 for rat L6 cells to IC50 for Plasmodium falciparum K1; assay type: ADME, cell-based; conditions: read-out: Ratio IC50
Plasmodium falciparum = assay: Antiplasmodial activity against chloroquine and pyrimethamine-resistant Plasmodium falciparum K1 assessed as inhibition of [3H]hypoxanthine incorporation incubated for 48 hrs prior to [3H] hypoxanthine addition measured after 24 hrs by liquid scintillation counting; assay type: functional, organism-based
[5] = test system: Trypanosoma brucei rhodesiense; assay: Antitrypanosomal activity against bloodstream form of Trypanosoma brucei rhodesiense STIB 900 after 70 hrs by resazurin-based spectrophotometric assay relative to melarsoprol; assay type: functional
[6] = Selectivity ratio of IC50 for rat L6 cells to IC50 for Giardia intestinalis G1; assay type: ADME, cell-based; conditions: read-out: Ratio IC50
[7] = Selectivity ratio of IC50 for rat L6 cells to IC50 for bloodstream form of Trypanosoma brucei rhodesiense STIB 900; assay type: ADME, cell-based; conditions: read-out: Ratio IC50
[8] = Selectivity ratio of IC50 for rat L6 cells to IC50 for Leishmania donovani MHOM-ET-67/L82; assay type: ADME, cell-based; conditions: read-out: Ratio IC50

| Structure (SMILES) | IC50 (Entamoeba histolytica) [µM] | IC50 (Giardia intestinalis) [µM] | IC50 (Trypanosoma cruzi) [µM] | inhibition [1] | selectivity ratio [2] | IC50 (Leishmania donovani) [µM] | IC50 [3] [µM] | IC50 (L6) [µM] | selectivity ratio [4] | IC50 (Plasmodium falciparum) [µM] | Ratio IC50 [5] | selectivity ratio [6] | selectivity ratio [7] | selectivity ratio [8] |
| --- | --- | --- | --- | --- | --- | --- | --- | --- | --- | --- | --- | --- | --- | --- |
| Cc1ncc([N+](=O)[O-])n1CCO [METRONIDAZOLE] | 5.82 | 1.56 | – | – | – | – | – | – | – | – | – | – | – | – |
| c1ccc2[nH]c(-c3ccc(OCCCCOc4ccc(-c5nc6ccccc6[nH]5)cc4)cc3)nc2c1 | 8.13 | 17.9 | 5.75 | Active | 1 | 3.25 | 2.76 | 7.84 | 18 | 0.44 | – | – | – | – |
| c1cc(OCc2ccc(COc3cccc(-c4nc5ccccc5[nH]4)c3)cc2)cc(-c2nc3ccccc3[nH]2)c1 | – | – | 10.9 | – | – | 8.44 | 24 | 10.4 | 54 | 0.19 | – | – | – | – |
| c1ccc2[nH]c(-c3ccc(OCCCCCOc4ccc(-c5nc6ccccc6[nH]5)cc4)cc3)nc2c1 | 22.7 | 0.82 | 2.42 | Active | – | 0.8 | 1.02 | 6.82 | 26 | 0.27 | – | – | – | – |
| c1cc(OCc2ccccc2COc2cccc(-c3nc4ccccc4[nH]3)c2)cc(-c2nc3ccccc3[nH]2)c1 | – | – | 2.53 | – | – | 3 | 2.66 | 7.02 | 20 | 0.34 | – | – | – | – |
| c1cc(OCCCCCCCCCCOc2cccc(-c3nc4ccccc4[nH]3)c2)cc(-c2nc3ccccc3[nH]2)c1 | 22.2 | 172 | 83.2 | – | – | 13.3 | 2.08 | 72.2 | 202 | 0.36 | – | – | – | – |
| c1ccc2[nH]c(-c3ccc(OCCCCCCCOc4ccc(-c5nc6ccccc6[nH]5)cc4)cc3)nc2c1 | 21.7 | 1.34 | 14.8 | Active | – | 1.53 | 1.08 | 48.4 | 208 | 0.23 | – | – | – | – |
| c1ccc(COc2ccc(-c3nc4ccccc4[nH]3)cc2)c(COc2ccc(-c3nc4ccccc4[nH]3)cc2)c1 | – | – | 6.07 | – | – | 2.33 | 1.32 | 5.89 | 17 | 0.34 | – | – | – | – |
| c1ccc2[nH]c(-c3ccc(OCc4ccc(COc5ccc(-c6nc7ccccc7[nH]6)cc5)cc4)cc3)nc2c1 | – | – | 26.3 | – | – | 0.8 | 2.12 | 16 | 70 | 0.23 | – | – | – | – |
| c1ccc2[nH]c(-c3ccc(OCCCCCCCCCCOc4ccc(-c5nc6ccccc6[nH]5)cc4)cc3)nc2c1 | 19.3 | 22.1 | 88.5 | – | – | 124 | 9.34 | 46 | 257 | 0.18 | – | – | – | – |
| c1cc(OCOc2cccc(-c3nc4ccccc4[nH]3)c2)cc(-c2nc3ccccc3[nH]2)c1 | – | – | 11.6 | – | – | 6.19 | 14.2 | 18.9 | 11 | 1.69 | – | – | – | – |
| c1ccc2[nH]c(-c3ccc(OCCCCCCCCOc4ccc(-c5nc6ccccc6[nH]5)cc4)cc3)nc2c1 | 65.8 | 10.4 | 57 | – | – | 98.2 | 39.1 | 19.8 | 67 | 0.3 | 100 | – | – | – |
| c1ccc2[nH]c(-c3ccc(OCOc4ccc(-c5nc6ccccc6[nH]5)cc4)cc3)nc2c1 | – | – | 11.3 | – | – | 16.5 | 2.13 | 14.4 | 21 | 0.69 | – | – | – | – |
| c1cc(OCCCCCCCCCOc2cccc(-c3nc4ccccc4[nH]3)c2)cc(-c2nc3ccccc3[nH]2)c1 | 46.2 | 45.5 | 4.98 | – | – | 6.59 | 2.37 | 21.9 | 39 | 0.57 | – | – | – | – |
| c1cc(OCCCOc2cccc(-c3nc4ccccc4[nH]3)c2)cc(-c2nc3ccccc3[nH]2)c1 | 78.3 | 56.1 | 8.92 | Active | – | 3.91 | 8.01 | 9.82 | 4 | 2.41 | – | – | – | – |
| c1cc(OCCCCCOc2cccc(-c3nc4ccccc4[nH]3)c2)cc(-c2nc3ccccc3[nH]2)c1 | 27.8 | 18.5 | 1.7 | – | – | 1.19 | 1.33 | 3.56 | 10 | 0.34 | – | – | – | – |
| c1cc(OCCCCCCCCOc2cccc(-c3nc4ccccc4[nH]3)c2)cc(-c2nc3ccccc3[nH]2)c1 | 23.5 | 52.4 | 4.28 | – | – | 5.9 | 4.5 | 13.1 | 29 | 0.45 | – | – | – | – |
| c1ccc2[nH]c(-c3ccc(OCCCCCCCCCOc4ccc(-c5nc6ccccc6[nH]5)cc4)cc3)nc2c1 | 30.7 | 0.83 | > 165 | – | – | 5.93 | 0.81 | 101 | 344 | 0.29 | – | 123 | 123 | – |
| c1cc(COc2ccc(-c3nc4ccccc4[nH]3)cc2)cc(COc2ccc(-c3nc4ccccc4[nH]3)cc2)c1 | – | – | 113 | – | – | 1.05 | 3.56 | > 172 | > 450 | 0.38 | – | – | – | > 164 |
| c1ccc2[nH]c(-c3ccc(OCCOc4ccc(-c5nc6ccccc6[nH]5)cc4)cc3)nc2c1 | 191 | 124 | 133 | – | – | > 202 | 154 | 25.4 | 13 | 2.01 | – | – | – | – |
| c1cc(COc2cccc(-c3nc4ccccc4[nH]3)c2)cc(COc2cccc(-c3nc4ccccc4[nH]3)c2)c1 | – | – | 5.99 | – | – | 4.63 | 3.6 | 79.6 | 198 | 0.4 | – | – | – | – |
| c1cc(OCCCCCCOc2cccc(-c3nc4ccccc4[nH]3)c2)cc(-c2nc3ccccc3[nH]2)c1 | 73.7 | 17.7 | 3.88 | – | – | 2.57 | 2.37 | 7.98 | 29 | 0.28 | – | – | – | – |
| c1cc(OCCCCOc2cccc(-c3nc4ccccc4[nH]3)c2)cc(-c2nc3ccccc3[nH]2)c1 | 211 | 36 | 23.9 | Active | – | 9.99 | 18.5 | 21.2 | 92 | 0.23 | – | – | – | – |
| c1ccc2[nH]c(-c3ccc(OCCCCCCOc4ccc(-c5nc6ccccc6[nH]5)cc4)cc3)nc2c1 | > 199 | 3.58 | 6.05 | Active | – | 6.59 | 7.22 | 9.61 | 40 | 0.24 | – | – | – | – |
| O=C(Cn1ccnc1[N+](=O)[O-])NCc1ccccc1 [BENZNIDAZOLE] | – | – | 1.13 | – | – | – | – | – | – | – | – | – | – | – |
| c1cc(OCCCCCCCOc2cccc(-c3nc4ccccc4[nH]3)c2)cc(-c2nc3ccccc3[nH]2)c1 | 56.7 | 25.8 | 1.82 | Active | – | 2.69 | 1.37 | 118 | 291 | 0.41 | – | – | – | – |
| c1ccc2[nH]c(-c3ccc(OCCCOc4ccc(-c5nc6ccccc6[nH]5)cc4)cc3)nc2c1 | 3.37 | 0.74 | 3.91 | Active | 1 | 2.67 | 1.5 | 3.56 | 13 | 0.28 | – | – | – | – |
| c1cc(OCCOc2cccc(-c3nc4ccccc4[nH]3)c2)cc(-c2nc3ccccc3[nH]2)c1 | 84 | 11.7 | 4.68 | Active | – | 24.1 | 16.6 | 5.04 | 2 | 2.58 | – | – | – | – |

Reference: ChEMBL document CHEMBL1926599, “Bis(oxyphenylene)benzimidazoles: a novel class of anti-Plasmodium falciparum agents” (Bioorg Med Chem, 2011)
